From patent publication US20190225643A1, “NOVEL NUCLEOSIDE ANALOGS AND USE THEREOF IN THERAPEUTIC TREATMENT” (CORNELL UNIVERSITY, priority 2016, published 2019)

Legend:
[1] = tested on: PEL cells (BC3); assay: Viability after zVAD-FMK pan-caspase inhibitor pre-treatment; type: cell-based, human; conditions: 80 μM zVAD-FMK pre-treatment, 48 hours
Procedure: (§1) Cell viability assays were performed by plating log-phase cells in RPMI complete media with 20% FBS at 1*10^5 cells/mL, with concentrations of 6-ETI or phospho-6-ETI ranging from 0.1 nM to 100 μM. ATP content at 24, 48 and 72 hours post-treatment was measured by the CellTiter-Glo kit (Promega, Madison, Wis.), or by Trypan blue assay as indicated. The LC50 for 6-ETI in each cell line was determined using online EC50 software at changbioscience.com or using GraphPad Prism to determine the LC50 for 6-ETI, phospho-6-ETI and nucleoside analogs in MM cell lines and primary MM patient samples.

[2] = tested on: Primary CD138+ human myeloma cells; assay: Ex vivo viability of primary multiple myeloma samples; type: cell-based; conditions: 24 hours
Procedure: as §1
Bone marrow specimens were obtained from multiple myeloma patients at the New York-Presbyterian Hospital under informed consent as part of an Institutional Review Board-approved study in accordance with the Declaration of Helsinki. Primary CD138^+ human myelorna cells were isolated by Ficoll-Hypaque density gradient centrifugation. The CD138^+ bone marrow myeloma cells were then enriched from this fraction to >95% purity using an automated MACS CD138 MicroBeads system (Miltenyi Biotechnology, Inc., Auburn, Calif.). […] PBLs were harvested from normal blood using Ficoll-Paque (Sigma-Aldrich) as described previously. Cells were plated in RPMI-1640 supplemented with 20% FBS.

[3] = tested on: IBL1, LY7 and BCKN1 cells; assay: Viability assay at higher plating density; type: cell-based; conditions: 5*10^5 cells/mL versus original assay conditions
Procedure: as §1, with “Cell viability assays were performed by plating log-phase cells in RPMI complete media with 20% FBS at 1*10^5 cells/mL, with concentrations of 6-ETI or phospho-6-ETI ranging from 0.1 nM to 100 μM.” left out

[4] = tested on: IBL-1 subcutaneous xenograft; assay: Xenograft model of EBV-associated immunoblastic lymphoma; type: in vivo, mouse; conditions: 300 mg/kg/day i.p., 5 treatments over 10 days
Procedure: The in vivo xenograft model of EBV-associated immunoblastic lymphoma was generated by injecting NOD-SCID mice (obtained from Jackson Laboratory Stock# 001303) subcutaneously on the flank region with 5*10^6IBL-1 cells in 200 μl of 50:50 matrigel/cell suspension per mouse. After forming palpable or measurable tumors, mice were randomly grouped (n=3 per group) and treated intraperitoneally with vehicle PBS-Tween80 or 6-ETI (300mg/kg/day) for 5 treatments over the course of 10 days where drug was administered three times a week. Tumor size was assessed by caliper measurement three times a week, and tumor volume (V) was calculated using the formula V=(length×Width^2)/2 where L=length or largest tumor diameter and W=width or the perpendicular tumor diameter. Relative tumor volume was determined according to the formula Vd/V0 where Vd is tumor volume on the day of measurement, and V0 represents the tumor volume on day 0 when the treatment started. At the end of the treatment course, two of the control mice were treated with vehicle PBS-Tween80 or 6-ETI (300 mg/kg) for 24 hr after which the tumors were harvested, fixed in 10% formalin and embedded in paraffin for histological examination and immunohistochemistry.

[5] = tested on: NF-κB activity in BC3NFRen-luc#3 cells; assay: NF-κB luciferase reporter assay; type: cell-based, human; conditions: as early as 6 hours post-treatment
Excerpt: Exponentially growing BC3-derived reporter cell lines (BC3NFκB-luc#6 or BC3NFRen-luc#3), and unrelated luciferase expressing U251-pGL3 cells were resuspended in respective RPMI-1640 complete media, and plated in a 96-well tissue culture microplate at 7.5*10^5 cells/mL and 3*10^5 cells/mL, respectively, in the presence or absence of varying concentrations of test compounds. […]

CCSc1ncnc2c1ncn2[C@@H]1O[C@H](CO)C(O)[C@@H]1O (some centres unmarked) [Compound 6-ETI, 6-ethylthioinosine]
caspase dependence of induced cell death [1]: largely caspase-independent
sensitivity ex vivo [2]: showed sensitivity
LC50 change at higher cell density [3]: decreased strikingly
tumor growth [4]: reduced the rate of tumor growth
NF-κB reporter activity [5]: inhibited NF-κB activity
